Results from PMC9098913, “In vitro reconstitution of Escherichia coli divisome activation” (Nature Communications, 2022).

Test system: FtsA self-interaction
Assay: Cuvette FRET of FtsA in solution and with lipid vesicles (SUVs)
Type: binding, E. coli
Settings: for FRET efficiency: Fig. S3c, in cuvette
Experimental: For in solution FRET experiments, increasing concentrations of Cy3-FtsA and Cy5-FtsA in a 50:50 ratio were mixed in 100 µl reaction buffer (50 mM Tris-HCl [pH7.4], 150 mM KCl and 5 mM MgCl2) inside a quartz cuvette (Hellma® fluorescence cuvettes, ultra Micro). The spectrums were measured using a Spectrophotometer Spectramax M2e Plate- + Cuvette Reader (Molecular Devices). Cy3-FtsA was excited at a wavelength of 520 nm and the resulting emission spectrum was recorded from 550–700 nm in 1 nm steps. To avoid crosstalk of the excitation light, a cutoff filter was set to 550 nm. Addition of ATP or small unilamellar vesicles (SUVs) was measured individually for each concentration. Buffer controls containing the corresponding reagents and only Cy5-FtsA were measured and used as background corrections for measurements with Cy3- and Cy5-FtsA. Background corrected spectra were used to estimate FRET efficiency by E(%)=Fa/Fd+Fa⋅100 , where Fa is the peak of acceptor (=Cy5) emission at 670 nm and Fd the peak of the emission of the donor (=Cy3) spectrum at 565 nm.

With “FtsA WT: wild-type E. coli actin-homologue FtsA, membrane anchor of FtsZ” the “FRET efficiency” value (+ SUVs, 0.05 µM, mean, n = 3) was 1.50%, the “FRET efficiency” value (+ SUVs, 0.05 µM, replicate 1) was 1.29% and the “FRET efficiency” value (+ SUVs, 0.05 µM, replicate 2) was 1.96%. For the same substance, the “FRET efficiency” value (+ SUVs, 0.05 µM, replicate 3) was 1.25%, the “FRET efficiency” value (+ SUVs, 0.10 µM, mean, n = 3) was 6.63% and the “FRET efficiency” value (+ SUVs, 0.10 µM, replicate 1) was 6.56%. The “FRET efficiency” value (+ SUVs, 0.10 µM, replicate 2) was 7.39%, the “FRET efficiency” value (+ SUVs, 0.10 µM, replicate 3) was 5.94% and the “FRET efficiency” value (+ SUVs, 0.20 µM, mean, n = 3) was 7.59%. The “FRET efficiency” value (+ SUVs, 0.20 µM, replicate 1) was 8.16%, the “FRET efficiency” value (+ SUVs, 0.20 µM, replicate 2) was 7.75% and the “FRET efficiency” value (+ SUVs, 0.20 µM, replicate 3) was 6.87%. For the same substance, the “FRET efficiency” value (without SUVs, 0.05 µM, mean, n = 3) was 0.0114%, the “FRET efficiency” value (without SUVs, 0.05 µM, replicate 1) was 0.0544% and the “FRET efficiency” value (without SUVs, 0.05 µM, replicate 2) was -1.50%. For the same substance, the “FRET efficiency” value (without SUVs, 0.05 µM, replicate 3) was 1.48%, the “FRET efficiency” value (without SUVs, 0.10 µM, mean, n = 3) was 1.67% and the “FRET efficiency” value (without SUVs, 0.10 µM, replicate 1) was 1.71%. For the same substance, the “FRET efficiency” value (without SUVs, 0.10 µM, replicate 2) was 2.21%, the “FRET efficiency” value (without SUVs, 0.10 µM, replicate 3) was 1.09% and the “FRET efficiency” value (without SUVs, 0.20 µM, mean, n = 3) was 2.87%. For the same substance, the “FRET efficiency” value (without SUVs, 0.20 µM, replicate 1) was 2.43%, the “FRET efficiency” value (without SUVs, 0.20 µM, replicate 2) was 2.56% and the “FRET efficiency” value (without SUVs, 0.20 µM, replicate 3) was 3.62%. The FRET in solution (cuvette, no lipid) was “could not detect any significant FRET signal” and the “FRET with lipid vesicles” value (cuvette, presence of lipid vesicles) was “FRET increased significantly”.
